Here are results for six molecules from patent US9494576B2, “Methods for detecting contaminants in solutions containing glucose polymers” (ROQUETTE FRERES, priority 2011, dated 2016).

The test system of assay [1] is THP-1 cells. Briefly: Production of RANTES by differentiated (MDP-sensitized) THP-1 cells, ELISA. In kind it is cell-based. The note with it: for synergistic effect on the production of RANTES: sensitizer added to PGN/LPS: MDP 10 μg/ml, f-MLP 1, 10, 100 nM, LPS 25 pg/ml; for Detection threshold / EC50: RANTES; for Detection threshold / EC50 / Sensitivity: without MDP; for Sensitivity: per g of polymer at 25 mg/ml. On the procedure:
(§1) The THP-1 cells (88081201, ECACC) are cultured routinely in the laboratory.
(§2) For the pro-inflammatory activation experiments, the THP-1 cells are differentiated for 3 days in the presence of phorbol ester (PMA). In particular, the cells are placed in culture in 200 μl of complete medium in the presence of 20 nM of PMA for 72 h (final cell density: 0.75×10^6 cells/ml).
(§3) The differentiated THP-1 cells (0.75×10^6 cells/ml) are placed in culture in 200 μl of complete medium, and then incubated in the presence of the various test samples.
(§4) Each analysis is carried out in triplicate.
(§5) The cell supernatants are collected in order to assay the secreted cytokines after 8 h of stimulation for TNF-α, and 20 h for RANTES.
(§6) The ELISA assays are carried out according to the indications given by the supplier.
The following experimental conditions are selected: • final concentration of differentiated THP-1 cells: 0.75×10^6 cells/ml, […], • final glucose polymer concentration: 25 mg/ml, • response: ELISA assay of the production of RANTES after 20 h of stimulation.

In assay [2] the test system is THP-1 cells. It counts as cell-based. On the procedure: as §1, §2, §3, §4, §5, §6
Another assay deals with NOD2 (Homo sapiens, UniProt Q9HC29). Nature of the assay: SEAP production by HEK-BLUE hNOD2 line (HEK-NOD2). In kind it is cell-based. The source says:
The HEK-BLUE cell lines (InvivoGen) are lines modified by stable transfection with vectors encoding innate immunity receptors. These cells are also cotransfected with a reporter gene which produces a secreted form of alkaline phosphatase (SEAP: secreted embryonic alkaline phosphatase), the synthesis of which is under the direct control of the signaling pathway associated with the receptor(s) expressed in the same cell line.
(§7) This line, which naturally expresses virtually all the innate immunity receptors, is used as a positive control in the tests.
(§8) The RAW-BLUE and HEK-BLUE cells are cultured according to the supplier's recommendations. In particular, the selection pressure for the plasmids encoding the inflammatory molecule receptors (TLR2 or NOD2) and encoding the SEAP is provided by adding, to the culture medium, the HEK-BLUE Selection/blasticidin antibiotics. At 75% confluence, the cells are resuspended at a cell density of 0.28×10^6 cells/ml. Before stimulation, 180 μl of the cell suspension are distributed into the culture wells (96-well plate), i.e. 50 000 cells/well. The cells are then stimulated for 24 h by adding 20 μl of the test samples (in ten-times concentrated form). The stimulation lasts from 16 to 24 h.
(§9) The production of SEAP in response to the contaminated molecules is estimated by measuring the phosphatase activity according to the protocol supplied by the manufacturer: 20 μl of culture supernatant are diluted in 180 μl of QUANTI-BLUE. The color develops at 37° C. and the reading is carried out, at various times, at 620 nm. The data are expressed as absorbance after subtraction of the background noise, obtained by adding the same volume of nonconditioned culture medium to the reaction medium of the enzyme.
In the new procedure referred to as without subculturing, the HEK-NOD2 cells are conditioned in wells (10 000/well) and cultured for three days. Before stimulation, the culture medium is removed and replaced with a medium containing 1% of FCS and the solutions to be assayed. In this case, the SEAP response is 5-6 times greater than the negative control, which is compatible with a test for detecting MDP in contaminated solutions (FIG. 12).
(§10) The following experimental conditions were selected: • final glucose polymer concentration: 37.5 mg/ml for the HEK-BLUE-cells, and 50 mg/ml for the RAW-BLUE cells, • enzymatic reaction: 50 μl of conditioned medium+150 μl of SEAP reagent, • minimum reaction time: 60 min.

Another assay relates to HEK-BLUE Null2 line. Nature of the assay: SEAP production by HEK-BLUE Null2 control line (HEK-Null). In kind it is cell-based. As to the method:
as §7, §8, §9

Another assay concerns RAW-BLUE cells. Briefly: SEAP production by RAW-BLUE line. It counts as cell-based, mouse. The note with it: for Detection threshold / EC50: RAW-BLUE line; for Sensitivity: per g of polymer at 50 mg/ml. As to the method: as §7, §8, §9, §10
The next assay relates to mononuclear cells. Conditions: background statement, cited from earlier work.
Assay [3] addresses T1, TLR2 (Homo sapiens, UniProt O60603). Briefly: SEAP production by HEK-BLUE hTLR2 line (HEK-TLR2). It counts as cell-based. On the procedure: The HEK-BLUE cell lines (InvivoGen) are lines modified by stable transfection with vectors encoding innate immunity receptors. These cells are also cotransfected with a reporter gene which produces a secreted form of alkaline phosphatase (SEAP: secreted embryonic alkaline phosphatase), the synthesis of which is under the direct control of the signaling pathway associated with the receptor(s) expressed in the same cell line. […]
as §8, §9, §10

The target of assay [4] is T1, TLR2. Briefly: Peptidoglycan assay method with HEK-BLUE hTLR2 cells, with or without mutanolysin treatment. In kind it is cell-based. On the procedure: The assay is based on the specific recognition of PGNs by a line expressing the TLR2 receptor and on the production of an enzymatic activity that is measurable via the activation of the signaling pathway associated with TLR2.
The dose-response curve was produced with standard S. aureus PGN (FIG. 21).
The HEK-BLUE cells are incubated with increasing concentrations of standard, and the cell response is measured by quantifying the enzymatic activity produced.
The result is a conventional sigmoid cell response curve: • part (A) corresponds to the responses obtained with low concentrations of PGN, below those which give effective activation of TLR2. This nonlinear zone therefore corresponds to the threshold limit of detection of the method. In such a way as to include the variability of the method, this detection threshold is estimated at three times the value of the background noise (response obtained in the absence of stimulus). • part (B) is the most interesting since a linear response is observed. This effective-response zone makes it possible to determine a direct relationship between the cell response and the level of PGN. It is therefore the assaying zone; • part (C) corresponds to a saturation of the cell response in the presence of PGN concentrations which are too high. […]
The PGN assays are carried out on glucose polymer solutions. The sample requiring the PGN quantification is incubated with HEK-BLUE hTLR2 cells, and the cell response is measured by quantifying the enzymatic activity produced. The amount of PGN contained in the sample can be determined by referring to the dose-response curves. […]
The samples were treated in the presence of 2500 U/ml of mutanolysin for 16 h at 37° C., and then added to the HEK-TLR2 cells. The cell response was measured by following the activity of the SEAP produced, according to the conditions described in example 3. […]
The absorbance values were reported on the calibration curves established under the same conditions with the standard PGN (FIG. 23), so as to determine the PGN concentrations present in the glucose polymers.

Setting [5] is: test of resumption of growth, FIG. 8, supplier's culture procedure.

Like-named read-outs stand apart in the source and are kept apart here.

T1 sequence (O60603 21-784): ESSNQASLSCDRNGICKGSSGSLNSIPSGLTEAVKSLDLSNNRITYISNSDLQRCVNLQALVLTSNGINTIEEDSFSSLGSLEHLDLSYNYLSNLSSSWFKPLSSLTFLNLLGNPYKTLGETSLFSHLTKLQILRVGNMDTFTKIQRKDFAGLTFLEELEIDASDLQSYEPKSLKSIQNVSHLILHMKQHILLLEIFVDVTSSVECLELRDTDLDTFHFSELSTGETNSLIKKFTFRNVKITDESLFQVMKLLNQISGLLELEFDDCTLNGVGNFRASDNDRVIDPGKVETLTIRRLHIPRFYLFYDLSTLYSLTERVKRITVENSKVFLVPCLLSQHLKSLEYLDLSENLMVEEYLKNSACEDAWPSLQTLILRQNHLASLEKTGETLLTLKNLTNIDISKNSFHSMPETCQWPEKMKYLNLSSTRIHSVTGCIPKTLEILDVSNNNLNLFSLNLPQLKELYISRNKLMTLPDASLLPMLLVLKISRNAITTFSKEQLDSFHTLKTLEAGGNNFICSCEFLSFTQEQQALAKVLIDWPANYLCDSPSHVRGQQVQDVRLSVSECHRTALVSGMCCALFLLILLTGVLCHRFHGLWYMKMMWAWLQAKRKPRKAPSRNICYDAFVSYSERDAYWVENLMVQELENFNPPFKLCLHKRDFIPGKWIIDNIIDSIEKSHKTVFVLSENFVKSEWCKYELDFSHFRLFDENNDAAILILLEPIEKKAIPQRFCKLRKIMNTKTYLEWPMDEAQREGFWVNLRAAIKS
NOD2, sequence (Q9HC29 whole entry): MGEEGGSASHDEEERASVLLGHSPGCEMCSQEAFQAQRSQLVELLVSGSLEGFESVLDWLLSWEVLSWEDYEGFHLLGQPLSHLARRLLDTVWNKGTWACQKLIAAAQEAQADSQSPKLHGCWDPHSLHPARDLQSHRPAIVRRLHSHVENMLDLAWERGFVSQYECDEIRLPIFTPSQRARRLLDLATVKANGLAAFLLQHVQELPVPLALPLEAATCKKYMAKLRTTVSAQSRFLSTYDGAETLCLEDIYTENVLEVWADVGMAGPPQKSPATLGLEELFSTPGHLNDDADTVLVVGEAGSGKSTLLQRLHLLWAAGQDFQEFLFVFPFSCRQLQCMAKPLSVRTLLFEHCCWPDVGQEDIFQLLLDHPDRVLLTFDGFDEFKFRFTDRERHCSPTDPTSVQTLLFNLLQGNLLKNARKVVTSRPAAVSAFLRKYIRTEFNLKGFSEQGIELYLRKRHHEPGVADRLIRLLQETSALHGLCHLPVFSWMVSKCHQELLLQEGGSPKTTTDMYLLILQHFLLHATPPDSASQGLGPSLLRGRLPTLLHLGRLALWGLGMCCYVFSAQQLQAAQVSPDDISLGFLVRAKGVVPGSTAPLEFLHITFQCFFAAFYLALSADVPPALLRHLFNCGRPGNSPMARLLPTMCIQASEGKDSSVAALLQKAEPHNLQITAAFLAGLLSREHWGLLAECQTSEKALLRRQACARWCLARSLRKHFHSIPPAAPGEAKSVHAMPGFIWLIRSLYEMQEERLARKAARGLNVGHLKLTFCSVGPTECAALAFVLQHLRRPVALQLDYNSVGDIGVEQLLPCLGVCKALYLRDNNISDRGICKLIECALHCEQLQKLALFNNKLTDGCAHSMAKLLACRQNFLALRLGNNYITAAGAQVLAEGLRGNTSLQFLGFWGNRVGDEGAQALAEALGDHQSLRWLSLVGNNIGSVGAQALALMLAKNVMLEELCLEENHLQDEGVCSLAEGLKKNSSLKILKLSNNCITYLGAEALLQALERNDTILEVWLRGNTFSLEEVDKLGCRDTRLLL

Turning to `CC(=O)N[C@H]1C(O)O[C@H](CO)[C@@H](O)[C@@H]1O[C@H](C)C(=O)N[C@@H](C)C(=O)N[C@H](CCC(=O)O)C(N)=O` (mixture of isomers) [MDP, muramyl dipeptide], the “increase of the sensitivity of the THP-1 cells to LPS and PGN (factor)” value in the assay on THP-1 cells [1] (MDP 10 μg/ml) is 5. In addition, the “synergistic effect on the production of RANTES and of TNF-α in response to PGN and LPS” value with THP-1 cells [1] (minimum dose 1 μg/ml) is on record as “does not induce a significant synergistic effect”. Also, in the assay with THP-1 cells [1], the “synergistic effect on the production of RANTES” value is recorded as “clearly show a synergistic effect”. Besides, the “synergistic effect on the production of TNF-α” value with THP-1 cells [2] was “not very marked”. On NOD2 (HEK-NOD2 line), this molecule showed a Detection threshold of 1.5 ± 0.5 ng/mL and an EC50 of 0.012 ± 0.006 µg/mL. In addition, the Sensitivity at NOD2 (per g of polymer at 37.5 mg/ml) came out at 40 ± 13 ng/g. The “SEAP response relative to the negative control” value at NOD2 (procedure without subculturing, 10 000 cells/well, FIG. 12) was 5-6 times. In addition, the “SEAP response of HEK-NOD2 cells” value on NOD2 (selected conditions, FIG. 16) is “respond effectively”. For the same molecule, at NOD2 (setting [5]), the “SEAP response of HEK-NOD2 cells” value is “responds only very weakly”. Moreover, the “SEAP response of HEK-Null cells” value with HEK-BLUE Null2 line is on record as “insensitive”.

In the case of Lipopolysaccharides [LPS], in the assay with THP-1 cells [1], the Detection threshold was found to be 10 ± 7 pg/mL, the EC50 turned out to be 0.0009 ± 0.0001 µg/mL, the Sensitivity was 400 ± 280 pg/g and the “synergistic effect on the production of RANTES” value is “synergistic effect of the two agonists is visible”. Moreover, in the assay on THP-1 cells [2] (sensitizer added to PGN/LPS: MDP 10 μg/ml, LPS 25 pg/ml), the “synergistic effect on the production of TNF-α” value is listed as “synergistic effect of the two agonists is visible”. In the assay on RAW-BLUE cells, the “SEAP response of RAW-BLUE cells to inflammatory molecules” value is “weak”, the “detection threshold relative to that of the sensitized THP-1 cells” value is given as “approximately 50 times”, the Detection threshold was found to be 0.24 ± 0.06 ng/mL and the 50% effective concentration (EC50) was greater than 0.01 µg/mL. For the same molecule, the Sensitivity in the assay on RAW-BLUE cells was 4.8 ± 1.2 ng/g. Moreover, in the assay on mononuclear cells, the “concentration inducing a significant response” value is “about 1 ng/ml”.

Regarding Tumor Necrosis Factor alpha [TNF-α], on TLR2 [3], the “SEAP response of HEK-TLR2 cells to inflammatory molecules” value (“SEAP response of HEK-TLR2 cells” below) was “respond”. The “SEAP response of HEK-NOD2 cells” value on NOD2 (setting [5]) is “responds only very weakly”. In addition, the “SEAP response of HEK-Null cells” value with HEK-BLUE Null2 line was “respond”.

In the case of formyl-Met-Leu-Phe tripeptide [f-MLP], the “synergistic effect on the production of RANTES” value in the assay with THP-1 cells [1] is “no synergistic effect was observed”.

Regarding lipoteichoic acid [LTA], on TLR2 [3], the “SEAP response of HEK-TLR2 cells” value was “weaker”.

Turning to peptidoglycans [PGN], the EC50 in the assay with THP-1 cells [1] is 1.2 ± 0.7 µg/mL; on TLR2 [3] (HEK-TLR2 line), 0.0031 ± 0.0025 µg/mL; in the assay with RAW-BLUE cells, 0.21 ± 0.075 µg/mL. The Detection threshold in the assay with THP-1 cells [1] (response > 3 x SD of background noise) turned out to be 14500 ± 8500 pg/mL; at TLR2 [3] (HEK-TLR2 line), 0.07 ± 0.04 ng/mL; in the assay on RAW-BLUE cells it was 2.1 ± 1.5 ng/mL. Further, the results for the Sensitivity with THP-1 cells [1], on TLR2 [3] (per g of polymer at 37.5 mg/ml) and with RAW-BLUE cells were 580000 ± 340000 pg/g, 1.9 ± 1.1 ng/g and 42 ± 30 ng/g, respectively. Besides, the “PGN levels detected by the HEK-TLR2 line” value at TLR2 [3] was “below 2 ng/g of glucose polymer”. In addition, the results for the “SEAP response of HEK-TLR2 cells” value at TLR2 [3] and at TLR2 [3] (listed as PUN) were “responds effectively” and “respond very effectively”, respectively. For the same molecule, the “reduction of reactivity for the HEK-TLR2 cells after passing through a 0.22 μm filter” value at TLR2 [3] is recorded as “approximately 50%”. At TLR2 [3], the “sensitivity threshold relative to the sensitized THP-1 cells” value was 50 times. In the assay on RAW-BLUE cells, the “SEAP response of RAW-BLUE cells to inflammatory molecules” value is “respond well”. For the same molecule, the “SEAP response of HEK-Null cells” value in the assay on HEK-BLUE Null2 line is reported as “insensitive”. Besides, the “reduction of the response of the HEK-TLR2 cells by mutanolysin treatment” value at TLR2 [4] (2500 U/ml, 16 h, 37° C., absence of glucose polymer) was “more than 50%”. Also, the “response of the HEK-TLR2 cells after mutanolysin treatment” value on TLR2 [4] (in the presence of 7.5% of polymer) was “improved”; at TLR2 [4] (in the presence of 37.5% of polymer), “unchanged”. Also, the “concentration required for a similar response, relative to LPS” value in the assay on mononuclear cells (w/w ratio) was “at least 100 times”.
